Here are results for 9 molecules from PubChem BioAssay AID2060600 (Molecular Pharmacology Branch, DTP, NCI, 2025).

“And” between values parts separate entries of the source, which are not always exact repeats. Equal values may be shown once.

The viability, T/C is the ratio of treated to control. By IC50 is commonly meant the midpoint of a concentration-inhibition curve.

The assay relates to 996289-038-R-J1-PDC complex spheroid viability. As to the kind of experiment: Anticancer human tumor 996289-038-R-J1-PDC patient-derived colon adenocarcinoma cell line growth inhibition [CLK]. The conditions noted are these: for viability, T/C: stronger effect = lower value; for IC50: curve of compound. The text has this:
A high-throughput screen of multi-cell type tumor spheroids was designed to identify active combinations of […] and targeted small molecules. Complex spheroids include a stromal component modeled by human endothelial cells (HUVEC) and fibroblasts modeled by human mesenchymal stem cells (MSCs). The concentration ranges selected for each drug and investigational agent were based upon clinically achievable concentrations if the clinical Cmax of the agent was known.
Compounds. The drugs and investigational agents: cirtuvivint (SM08502; NSC835563), CC-671 (NSC850746), vemurafenib (NSC761431), tapotoclax (NSC804041), sotorasib (NSC818433), adagrasib (NSC831453), MRTX-1133 (NSC836407), BAY2416964 (NSC825713), copanlisib (NSC816437), inavolisib (NSC800729), abemaciclib (NSC768073), osimertinib (NSC779217), entinostat (NSC756642), eltanexor (KPT-8602, NSC794443), venetoclax (NSC766270), ceralasertib (NSC777638), bortezomib (NSC756655), olaparib (NSC753686), talazoparib (NSC767125), alisertib (NSC759677), peposertib (NSC802822), gemcitabine (NSC613327), 5-fluorouracil (NSC19893), SN-38 (NSC673596), oxaliplatin (NSC266046), paclitaxel (NSC125973), and doxorubicin (NSC123127), were obtained from the National Cancer Institute (NCI) Developmental Therapeutics Program Chemical Repository. The FDA-approved anticancer drug set is available from the Developmental Therapeutics Program at https://dtp.cancer.gov/organization/dscb/obtaining/available plates.htm. […] The stock solutions were prepared in dimethyl sulfoxide (DMSO, Sigma-Aldrich, St. Louis, MO, cat. D2650), except for the platinum complexes which were prepared in saline (Quality Biological, Gaithersburg, MD, cat. 114-055-101), at 800-fold the tested concentration and stored at -70 degrees C prior to their use. All drugs and investigational agents were tested over a range starting from a high concentration at or near the clinical Cmax and decreasing in half-log increments. If the clinical Cmax for an agent had not been determined, the highest concentration tested was 10 microM.
Cell Culture. All cells were maintained in an incubator at 37 degrees C and 5% CO2 with 95% humidity. The PDC lines were cultured according to standard operating procedures established by the NCI PDMR. Briefly, all PDCs were thawed and cultured in Matrigel-coated flasks prepared with a working solution of 1X Ham's F-12 nutrient mix, without supplementation (Invitrogen, Waltham, MA, cat. 11765054), 100 U/mL penicillin-streptomycin (Invitrogen, cat. 15140122), and 2.5% Matrigel (Corning Inc., Corning, NY, cat. 354248) for the first three passages. The 947758-054-R-J2-PDC line was cultured in 6B/Colon 1A media, which includes advanced DMEM/F-12 (Thermo Fisher Scientific, cat. 12634028), 10 mM HEPES (Thermo Fisher Scientific, cat. 15630080), 1X GlutaMAX supplement (Thermo Fisher Scientific, cat. 35050061), 0.1 mg/mL primocin (InvivoGen, cat. ant-pm-2), 10% defined fetal bovine serum, heat inactivated (HyClone Laboratories Inc., cat. SH30070.03HI), 1.25 mM N-Acetyl-L-cysteine (Sigma-Aldrich, cat. A9165), 10 mM nicotinamide (Sigma-Aldrich, cat. N0636), 1X B-27 supplement (Thermo Fisher Scientific, cat. 17504044), 1X N-2 supplement (Thermo Fisher Scientific, cat. 17502048), and 10 microM Y-27632 dihydrochloride (Tocris Bioscience, cat. 1254). The 876862-298-R-J1-PDC was cultured in 6E media, which includes all 6B/Colon 1A media components plus 50% L-WRN conditioned media (ATCC, cat. CRL-3276), 50 ng/mL recombinant human EGF recombinant protein (hEGF; Thermo Fisher Scientific, cat. PHG0311), 10 ng/mL recombinant human fibroblast growth factor 10 (hGFG-10; PeproTech, cat. 100-26), 1 ng/mL recombinant human fibroblast growth factor 2 (hFGF-2; PeproTech, cat. 100-18B), and 1 µM prostaglandin E2 (PGE2; Tocris, cat. 2296). The 227483-062-R1-J1-PDC line was cultured in Panc media, containing all 6E components except hFGF-2, with the addition of 500 nM SB-431542 (Selleckchem, cat. S1067) and 10 nM gastrin (Tocris, cat. 3006). […]
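Note: spheroids exposed to the agents for 7 days before readout.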

In the case of `CC(=O)O[C@H]1C(=O)[C@@]2(C)[C@H]([C@H](OC(=O)c3ccccc3)[C@]3(O)C[C@H](OC(=O)[C@H](O)[C@@H](NC(=O)c4ccccc4)c4ccccc4)C(C)=C1C3(C)C)[C@]1(OC(C)=O)CO[C@@H]1C[C@@H]2O`, the IC50 is more than 10 µM. Under “compound 0.0316 µM”, the viability, T/C was 94.2% and 106%. Also, under “compound 0.1 µM”, the viability, T/C was 85.8% and 89.7%. Moreover, the viability, T/C (compound 0.316 µM) was 68.7% and 72.4%. The viability, T/C (compound 1 µM) is 59.8% and 63.7%. The viability, T/C (compound 3.16 µM) is 58.6% and 73%. In addition, the viability, T/C (compound 10 µM) is 61.5% and 67.2%.
Take `CC1(C)CCC(CN2CCN(c3ccc(C(=O)NS(=O)(=O)c4ccc(NCC5CCOCC5)c([N+](=O)[O-])c4)c(Oc4cnc5[nH]ccc5c4)c3)CC2)=C(c2ccc(Cl)cc2)C1`: the IC50 is 8.2 µM and 9.04 µM. For the same molecule, the viability, T/C (compound 0.0316 µM) was 108% and 106%. The viability, T/C (compound 0.1 µM) is 94.2% and 83.6%. The viability, T/C (compound 0.316 µM) was 101% and 109%. In addition, the viability, T/C (compound 1 µM) was 109% and 100%. Further, the viability, T/C (compound 3.16 µM) is 118% and 121%. The viability, T/C (compound 10 µM) was 38.2% and 44.7%.
Regarding `CC1COCCN1c1cc(C2(S(C)(=N)=O)CC2)nc(-c2ccnc3[nH]ccc23)n1` (stereo not drawn), the IC50 is more than 10 µM. Besides, the viability, T/C (compound 0.0316 µM) was 103% and 102%. The viability, T/C (compound 0.1 µM) is 97.6% and 89.7%. Also, the viability, T/C (compound 0.316 µM) was 96.9% and 106%. The viability, T/C (compound 1 µM) was 97.9% and 102%. Further, the viability, T/C (compound 3.16 µM) was 97.8% and 101%. Moreover, the viability, T/C (compound 10 µM) is 84.4% and 81.6%.
For the molecule `COc1ccc([C@@H](O)c2cc(-c3ncnc4cc(N5CCOCC5)ccc34)c(F)cc2Cl)nn1`, the IC50 was more than 10 µM. Further, the viability, T/C (compound 0.0316 µM) was 102%. The viability, T/C (compound 0.1 µM) was 92.7% and 88.9%. Where the note is “compound 0.316 µM”, the viability, T/C was 101% and 90.7%. Further, the viability, T/C (compound 1 µM) was 93.3% and 87.7%. In addition, the viability, T/C (compound 3.16 µM) was 77.5% and 79.5%. Where the note is “compound 10 µM”, the viability, T/C is 50.1% and 52.1%.
Turning to `COc1cccc2c1C(=O)c1c(O)c3c(c(O)c1C2=O)CC(O)(C(=O)CO)CC3OC1CC(N)C(O)C(C)O1` (stereo not drawn), the IC50 is 2.65 µM and 3.33 µM. The viability, T/C (compound 0.0316 µM) was 100% and 103%. The viability, T/C (compound 0.1 µM) was 87.1% and 86.2%. Under “compound 0.316 µM”, the viability, T/C was 76.5% and 79.6%. Moreover, under “compound 1 µM”, the viability, T/C was 59.4% and 62.6%. In addition, for the setting “compound 3.16 µM”, the viability, T/C was 49% and 51.9%. Further, the viability, T/C (compound 10 µM) was 35.5% and 36.7%.
For the molecule `Nc1ccccc1NC(=O)c1ccc(CNC(=O)OCc2cccnc2)cc1`, the IC50 was 6.4 µM and 7.34 µM. The viability, T/C (compound 0.0316 µM) was 88.5% and 105%. In addition, where the note is “compound 0.1 µM”, the viability, T/C is 89.2% and 81.2%. Besides, the viability, T/C (compound 0.316 µM) is 91.8% and 98.1%. In addition, for the setting “compound 1 µM”, the viability, T/C was 87.1% and 85%. In addition, the viability, T/C (compound 3.16 µM) is 61.8% and 65.7%. Further, the viability, T/C (compound 10 µM) is 42.5% and 44.2%.
As for `Nc1ccn(C2OC(CO)C(O)C2(F)F)c(=O)n1` (stereo not drawn), the IC50 was more than 10 µM. In addition, the viability, T/C (compound 0.0316 µM) is 82% and 89.3%. Moreover, for the setting “compound 0.1 µM”, the viability, T/C was 62.9% and 70.5%. Moreover, the viability, T/C (compound 0.316 µM) is 62.4% and 68.2%. Where the note is “compound 1 µM”, the viability, T/C was 55.8% and 65.7%. The viability, T/C (compound 3.16 µM) is 54.8% and 69.3%. In addition, where the note is “compound 10 µM”, the viability, T/C is 47% and 59%.
Turning to `O=C(c1cc(Cc2n[nH]c(=O)c3ccccc23)ccc1F)N1CCN(C(=O)C2CC2)CC1`, the IC50 was more than 10 µM. Further, the viability, T/C (compound 0.0316 µM) is 99.9% and 109%. Further, under “compound 0.1 µM”, the viability, T/C is 98.6% and 86.6%. In addition, the viability, T/C (compound 0.316 µM) was 103% and 108%. In addition, the viability, T/C (compound 1 µM) was 99.1% and 105%. Moreover, the viability, T/C (compound 3.16 µM) was 105% and 113%. Besides, the viability, T/C (compound 10 µM) is 93.9% and 104%.
For the molecule `O=c1[nH]cc(F)c(=O)[nH]1`, the IC50 was more than 10 µM. Moreover, the viability, T/C (compound 0.0316 µM) was 99.2% and 101%. Besides, the viability, T/C (compound 0.1 µM) was 83.9% and 82.2%. Besides, the viability, T/C (compound 0.316 µM) is 83.3% and 88.9%. For the same molecule, the viability, T/C (compound 1 µM) is 79.7% and 78.6%. Moreover, the viability, T/C (compound 3.16 µM) is 77.9% and 85.8%. The viability, T/C (compound 10 µM) was 73.3% and 74.8%.
